Paper PMC8248323 (Clinical Pharmacology in Drug Development, 2021)
Read-outs that look alike come from different tables or passages of the source.

Experiments:
P‐gp [1] = molecular target: T1, P‐gp (Homo sapiens, UniProt P08183); experiment: In vitro transporter substrate assessment; format: in vitro ADME
OATP1B3 [2] = molecular target: T2, OATP1B3 (Homo sapiens, UniProt Q9NPD5); experiment: In vitro transporter inhibition; format: in vitro ADME
[3] = both phase 3 studies; cited from earlier work
CYP1A2 = CYP1A2 (Homo sapiens, UniProt P05177); experiment: In vitro CYP inhibition; format: in vitro ADME
CYP2B6 [4] = format: in vitro ADME; details: in vitro
CYP3A [5] = format: in vitro ADME; details: in vitro metabolism studies; unpublished data
CYP3A [6] = format: in vitro ADME; details: in vitro
[7] = Phase 1 DDI study 004 part A: lemborexant plasma PK with/without itraconazole; format: in vivo, human
[8] = Phase 1 DDI study 004 part B: midazolam; details: clinically relevant concentrations, daily dosing up to 10 mg
OATP1B1 [9] = molecular target: T3, OATP1B1 (Homo sapiens, UniProt Q9Y6L6); experiment: In vitro transporter substrate assessment; format: in vitro ADME
bile salt export pump = bile salt export pump (Homo sapiens, UniProt O95342); experiment: In vitro transporter inhibition; format: in vitro ADME
OCT2 = OCT2 (Homo sapiens, UniProt O15244); experiment: In vitro transporter inhibition; format: in vitro ADME
CYP2D6 = CYP2D6 (Homo sapiens, UniProt P10635); experiment: In vitro CYP inhibition; format: in vitro ADME
OCT1 = OCT1 (Homo sapiens, UniProt O15245); experiment: In vitro transporter inhibition; format: in vitro ADME
OAT3 = OAT3 (Homo sapiens, UniProt Q8TCC7); experiment: In vitro transporter inhibition; format: in vitro ADME
MATE1 = MATE1 (Homo sapiens, UniProt Q96FL8); experiment: In vitro transporter inhibition; format: in vitro ADME
P‐gp [10] = molecular target: T1, P‐gp; experiment: In vitro transporter inhibition; format: in vitro ADME
OATP1B1 [11] = molecular target: T3, OATP1B1; experiment: In vitro transporter inhibition; format: in vitro ADME
CYP3A [12] = experiment: in vitro; format: in vitro ADME
BCRP = BCRP (Homo sapiens, UniProt Q9UNQ0); experiment: In vitro transporter substrate assessment; format: in vitro ADME
MATE2‐K = MATE2‐K (Homo sapiens, UniProt Q86VL8); experiment: In vitro transporter inhibition; format: in vitro ADME
[13] = molecular target: breast cancer resistance protein (Homo sapiens, UniProt Q9UNQ0); experiment: In vitro transporter inhibition; format: in vitro ADME
[14] = Phase 1 DDI study 012: lemborexant plasma PK with/without fluconazole; format: in vivo, human; details: for AUC: human, plasma
[15] = format: in vivo, human; details: for estimated lemborexant exposure: population PK model
CYP2B6 [16] = molecular target: CYP2B6 (Homo sapiens, UniProt P20813); format: in vitro ADME; details: in vitro
CYP2C9 = CYP2C9 (Homo sapiens, UniProt P11712); experiment: In vitro CYP inhibition; format: in vitro ADME
CYP2C19 = CYP2C19 (Homo sapiens, UniProt P33261); experiment: In vitro CYP inhibition; format: in vitro ADME
CYP2C8 = CYP2C8 (Homo sapiens, UniProt P10632); experiment: In vitro CYP inhibition; format: in vitro ADME
OAT1 = OAT1 (Homo sapiens, UniProt Q4U2R8); experiment: In vitro transporter inhibition; format: in vitro ADME
CYP2A6 = CYP2A6 (Homo sapiens, UniProt P11509); experiment: In vitro CYP inhibition; format: in vitro ADME
[17] = Phase 1 DDI study 004 part A: lemborexant plasma PK with/without rifampin; format: in vivo, human
CYP2E1 = CYP2E1 (Homo sapiens, UniProt P05181); experiment: In vitro CYP inhibition; format: in vitro ADME
OATP1B3 [18] = molecular target: T2, OATP1B3; experiment: In vitro transporter substrate assessment; format: in vitro ADME
[19] = coadministration with itraconazole
[20] = lemborexant + itraconazole / lemborexant alone
[21] = coadministration with fluconazole
[22] = lemborexant + fluconazole / lemborexant alone
[23] = lemborexant + rifampin / lemborexant alone

T2 sequence (Q9NPD5 whole entry): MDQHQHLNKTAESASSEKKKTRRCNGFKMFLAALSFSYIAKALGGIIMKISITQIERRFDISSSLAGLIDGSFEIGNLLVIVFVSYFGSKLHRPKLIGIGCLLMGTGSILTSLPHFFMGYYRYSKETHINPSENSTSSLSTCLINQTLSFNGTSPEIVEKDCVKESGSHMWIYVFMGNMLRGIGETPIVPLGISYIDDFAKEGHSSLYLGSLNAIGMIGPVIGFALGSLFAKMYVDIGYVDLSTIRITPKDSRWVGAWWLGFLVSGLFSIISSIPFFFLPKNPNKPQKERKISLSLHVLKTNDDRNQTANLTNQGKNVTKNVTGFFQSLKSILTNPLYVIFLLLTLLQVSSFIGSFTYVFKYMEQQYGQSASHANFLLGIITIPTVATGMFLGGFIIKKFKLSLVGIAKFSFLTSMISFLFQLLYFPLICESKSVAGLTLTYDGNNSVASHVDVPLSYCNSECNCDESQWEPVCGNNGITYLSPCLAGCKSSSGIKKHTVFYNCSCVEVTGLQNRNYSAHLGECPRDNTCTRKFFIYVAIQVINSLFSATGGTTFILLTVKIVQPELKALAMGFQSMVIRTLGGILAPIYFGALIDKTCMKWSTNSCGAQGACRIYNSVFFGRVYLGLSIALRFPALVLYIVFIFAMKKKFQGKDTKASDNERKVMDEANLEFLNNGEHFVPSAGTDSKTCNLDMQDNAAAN
T3 sequence (Q9Y6L6 whole entry): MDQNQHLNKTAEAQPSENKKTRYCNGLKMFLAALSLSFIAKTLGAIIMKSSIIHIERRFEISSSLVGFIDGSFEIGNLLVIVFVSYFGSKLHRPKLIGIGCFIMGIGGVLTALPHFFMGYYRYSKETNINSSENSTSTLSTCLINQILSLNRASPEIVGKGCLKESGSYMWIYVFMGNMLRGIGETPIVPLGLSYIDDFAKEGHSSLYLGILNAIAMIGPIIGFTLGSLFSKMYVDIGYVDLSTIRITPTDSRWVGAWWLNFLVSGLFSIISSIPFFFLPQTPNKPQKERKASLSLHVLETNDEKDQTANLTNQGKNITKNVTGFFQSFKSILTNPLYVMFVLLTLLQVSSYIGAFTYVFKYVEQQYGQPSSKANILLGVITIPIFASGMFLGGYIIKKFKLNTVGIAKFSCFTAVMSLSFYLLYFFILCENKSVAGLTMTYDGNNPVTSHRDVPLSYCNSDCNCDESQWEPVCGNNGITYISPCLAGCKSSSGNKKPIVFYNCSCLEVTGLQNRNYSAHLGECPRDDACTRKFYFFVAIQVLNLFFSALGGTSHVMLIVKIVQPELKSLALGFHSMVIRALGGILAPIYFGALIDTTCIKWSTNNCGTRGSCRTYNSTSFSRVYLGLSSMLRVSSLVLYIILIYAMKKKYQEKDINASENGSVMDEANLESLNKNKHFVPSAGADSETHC
T1 sequence (P08183 whole entry): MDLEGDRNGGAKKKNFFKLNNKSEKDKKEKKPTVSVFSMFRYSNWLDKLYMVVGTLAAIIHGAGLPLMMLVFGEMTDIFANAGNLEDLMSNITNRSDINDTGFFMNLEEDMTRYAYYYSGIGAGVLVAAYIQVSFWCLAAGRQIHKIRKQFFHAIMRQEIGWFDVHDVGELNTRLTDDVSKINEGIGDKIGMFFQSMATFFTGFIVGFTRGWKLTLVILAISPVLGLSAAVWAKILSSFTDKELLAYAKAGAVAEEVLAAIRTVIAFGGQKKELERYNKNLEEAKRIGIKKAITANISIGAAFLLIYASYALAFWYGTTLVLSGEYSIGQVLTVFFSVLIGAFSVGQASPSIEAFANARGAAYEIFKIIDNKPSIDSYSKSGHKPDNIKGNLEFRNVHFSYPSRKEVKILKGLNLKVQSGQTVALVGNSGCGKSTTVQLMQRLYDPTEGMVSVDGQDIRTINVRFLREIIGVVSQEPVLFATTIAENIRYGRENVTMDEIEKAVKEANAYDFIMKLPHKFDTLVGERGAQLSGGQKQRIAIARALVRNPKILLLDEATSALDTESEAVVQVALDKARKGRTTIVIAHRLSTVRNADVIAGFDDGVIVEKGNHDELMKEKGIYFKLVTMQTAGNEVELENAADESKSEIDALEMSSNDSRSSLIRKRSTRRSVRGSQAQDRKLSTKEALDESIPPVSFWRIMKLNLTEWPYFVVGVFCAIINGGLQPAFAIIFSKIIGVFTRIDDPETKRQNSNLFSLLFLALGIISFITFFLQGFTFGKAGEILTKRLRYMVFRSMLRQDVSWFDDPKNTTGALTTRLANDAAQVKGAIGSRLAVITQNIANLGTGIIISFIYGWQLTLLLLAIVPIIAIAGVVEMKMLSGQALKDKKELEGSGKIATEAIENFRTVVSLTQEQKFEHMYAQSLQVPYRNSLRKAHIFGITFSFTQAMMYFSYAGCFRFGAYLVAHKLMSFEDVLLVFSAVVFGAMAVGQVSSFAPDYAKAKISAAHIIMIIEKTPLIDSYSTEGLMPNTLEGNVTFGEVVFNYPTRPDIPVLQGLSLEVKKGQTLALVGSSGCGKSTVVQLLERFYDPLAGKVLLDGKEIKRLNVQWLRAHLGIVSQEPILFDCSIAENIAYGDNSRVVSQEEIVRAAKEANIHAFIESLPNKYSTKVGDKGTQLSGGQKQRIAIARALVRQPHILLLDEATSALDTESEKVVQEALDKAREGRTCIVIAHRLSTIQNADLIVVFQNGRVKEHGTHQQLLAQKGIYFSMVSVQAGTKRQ
OCT2, sequence (O15244 whole entry): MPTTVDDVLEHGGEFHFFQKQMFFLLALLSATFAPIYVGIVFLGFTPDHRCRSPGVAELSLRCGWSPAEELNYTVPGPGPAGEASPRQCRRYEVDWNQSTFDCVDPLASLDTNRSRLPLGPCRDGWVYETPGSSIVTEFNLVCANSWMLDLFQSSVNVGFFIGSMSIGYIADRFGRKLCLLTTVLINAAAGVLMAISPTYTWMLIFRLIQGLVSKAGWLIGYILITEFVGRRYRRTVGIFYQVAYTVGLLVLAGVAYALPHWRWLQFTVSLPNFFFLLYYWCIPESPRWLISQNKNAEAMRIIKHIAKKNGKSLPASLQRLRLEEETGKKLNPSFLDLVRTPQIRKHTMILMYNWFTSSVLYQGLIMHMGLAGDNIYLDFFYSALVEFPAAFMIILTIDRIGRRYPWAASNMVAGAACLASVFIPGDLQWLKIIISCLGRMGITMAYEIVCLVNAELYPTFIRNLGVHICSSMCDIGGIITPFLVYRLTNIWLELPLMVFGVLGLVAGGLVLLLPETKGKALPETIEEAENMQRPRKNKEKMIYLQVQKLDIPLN
MATE1, sequence (Q96FL8 whole entry): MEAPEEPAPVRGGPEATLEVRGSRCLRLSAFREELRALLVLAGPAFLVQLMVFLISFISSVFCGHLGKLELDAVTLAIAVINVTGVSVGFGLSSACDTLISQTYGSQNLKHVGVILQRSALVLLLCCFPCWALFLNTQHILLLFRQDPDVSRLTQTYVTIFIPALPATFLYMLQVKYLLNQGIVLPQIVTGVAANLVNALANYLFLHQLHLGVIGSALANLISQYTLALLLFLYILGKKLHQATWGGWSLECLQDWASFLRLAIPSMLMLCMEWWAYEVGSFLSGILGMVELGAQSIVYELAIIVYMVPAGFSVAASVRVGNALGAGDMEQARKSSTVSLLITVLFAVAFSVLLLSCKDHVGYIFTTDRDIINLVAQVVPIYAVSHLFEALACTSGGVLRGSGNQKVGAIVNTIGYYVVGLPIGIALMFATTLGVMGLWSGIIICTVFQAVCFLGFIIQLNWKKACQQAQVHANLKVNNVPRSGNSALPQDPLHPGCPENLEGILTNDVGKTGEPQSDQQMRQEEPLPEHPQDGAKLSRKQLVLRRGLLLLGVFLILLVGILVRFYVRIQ
CYP2E1, sequence (P05181 whole entry): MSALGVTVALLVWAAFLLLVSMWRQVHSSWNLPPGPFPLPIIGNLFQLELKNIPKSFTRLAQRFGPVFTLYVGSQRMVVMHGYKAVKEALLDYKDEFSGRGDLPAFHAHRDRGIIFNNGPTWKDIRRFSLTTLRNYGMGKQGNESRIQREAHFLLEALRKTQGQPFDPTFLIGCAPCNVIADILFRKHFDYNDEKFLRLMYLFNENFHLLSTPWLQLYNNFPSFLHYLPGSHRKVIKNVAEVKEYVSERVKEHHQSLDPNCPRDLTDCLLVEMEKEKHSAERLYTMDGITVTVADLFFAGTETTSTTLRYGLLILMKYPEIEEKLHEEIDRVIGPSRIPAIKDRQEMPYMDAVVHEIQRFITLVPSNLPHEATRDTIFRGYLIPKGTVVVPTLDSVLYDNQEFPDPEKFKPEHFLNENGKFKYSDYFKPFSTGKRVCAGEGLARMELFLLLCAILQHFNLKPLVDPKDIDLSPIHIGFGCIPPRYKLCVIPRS
CYP2B6 (Homo sapiens, UniProt P20813), sequence (P20813 whole entry): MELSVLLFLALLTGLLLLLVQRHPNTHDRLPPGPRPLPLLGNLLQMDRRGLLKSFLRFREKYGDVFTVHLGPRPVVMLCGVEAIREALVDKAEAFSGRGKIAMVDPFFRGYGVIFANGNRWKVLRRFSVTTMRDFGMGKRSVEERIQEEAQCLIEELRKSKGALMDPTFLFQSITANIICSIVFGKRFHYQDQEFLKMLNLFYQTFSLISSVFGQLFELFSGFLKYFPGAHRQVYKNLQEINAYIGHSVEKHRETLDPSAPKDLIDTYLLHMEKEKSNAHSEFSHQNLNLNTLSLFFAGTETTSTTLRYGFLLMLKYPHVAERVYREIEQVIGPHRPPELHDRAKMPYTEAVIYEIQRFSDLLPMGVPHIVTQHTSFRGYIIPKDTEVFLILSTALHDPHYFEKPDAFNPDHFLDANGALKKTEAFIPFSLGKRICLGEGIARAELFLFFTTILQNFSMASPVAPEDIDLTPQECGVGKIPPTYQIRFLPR

Cc1ncc(OC[C@@]2(c3cccc(F)c3)C[C@H]2C(=O)Nc2ccc(F)cn2)c(C)n1 [Lemborexant, (1R,2S)‐2‐{[(2,4‐dimethylpyrimidin‐5‐yl)oxy]methyl}‐2‐(3‐fluorophenyl)‐N‐(5‐fluoropyridin‐2‐yl)cyclopropanecarboxamide]
substrate of P‐gp (P‐gp [1]): potential poor substrate | inhibition of OATP1B3 (OATP1B3 [2]): do not inhibit | tolerability [3]: well tolerated | inhibition of CYP1A2 (CYP1A2): do not inhibit | induction of CYP2B6 (CYP2B6 [4]): have the potential to induce | metabolic pathway (CYP3A [5]): predominantly metabolized by the cytochrome P450 3A (CYP3A) pathway | induction of CYP3A (CYP3A [6]): have the potential to induce | increase in lemborexant AUC0–inf [7, 19]: 3.7 fold | increase in lemborexant Cmax [7, 19]: 1.4 fold | half-life ([7]; human, plasma, 10 mg): 54.4 h | AUC ([7]; human, plasma, 10 mg, AUC0‐inf, Geometric LSM, lemborexant 10 mg alone, n = 15, itraconazole cohort): 433 ng·h/mL | AUC ([7]; human, plasma, 10 mg, AUC0‐inf, Mean (SD), lemborexant 10 mg alone, itraconazole cohort): 464 ng·h/mL | AUC ([7]; human, plasma, 10 mg, AUC0‐t, Mean (SD), lemborexant 10 mg alone, itraconazole cohort): 437 ng·h/mL | AUC ([7]; human, plasma, AUC0‐inf, Geometric LSM, lemborexant 10 mg + itraconazole 200 mg, n = 11): 1600 ng·h/mL | AUC ([7]; human, plasma, AUC0‐inf, Mean (SD), lemborexant 10 mg + itraconazole 200 mg): 1640 ng·h/mL | AUC ([7]; human, plasma, AUC0‐t, Geometric LSM, lemborexant 10 mg + itraconazole 200 mg once daily, n = 14): 1480 ng·h/mL | AUC ([7]; human, plasma, AUC0‐t, Mean (SD), lemborexant 10 mg + itraconazole 200 mg): 1540 ng·h/mL | Cmax ([7]; human, plasma, Cmax, Mean (SD), lemborexant 10 mg + itraconazole 200 mg): 75 ng/mL | AUC0‐inf, Geometric Mean Ratio (90%CI) [7, 20]: 3.702 (3.183‐4.306) | AUC0‐t, Geometric Mean Ratio (90%CI) [7, 20]: 3.605 (3.122‐4.162) | Cmax, Geometric Mean Ratio (90%CI) [7, 20]: 1.360 (1.181‐1.567) | clinical effect on CYP2B6 [8]: has the potential to induce CYP2B6 | substrate of OATP1B1 (OATP1B1 [9]): neither lemborexant nor M10 was a substrate | inhibition of bile salt export pump (bile salt export pump): do not inhibit | inhibition of OCT2 (OCT2): do not inhibit | inhibition of CYP2D6 (CYP2D6): do not inhibit | inhibition of OCT1 (OCT1): do not inhibit | inhibition of OAT3 (OAT3): do not inhibit | inhibition of MATE1 (MATE1): do not inhibit | inhibition of P‐gp (P‐gp [10]): do not inhibit | inhibition of OATP1B1 (OATP1B1 [11]): do not inhibit | KI (inactivation) (CYP3A [12]): 25.2 µM | inhibition at 30 μmol/L (CYP3A [12]): 61.5% | kinact (CYP3A [12]): 0.000838 s⁻¹ | substrate of BCRP (BCRP): neither lemborexant nor M10 was a substrate | inhibition of MATE2‐K (MATE2‐K): do not inhibit | inhibition of breast cancer resistance protein [13]: do not inhibit | increase in lemborexant AUC0–inf [14, 21]: ~4 fold | increase in lemborexant Cmax [14, 21]: 1.6 fold | AUC ([14]; AUC0‐inf, Geometric LSM, lemborexant 10 mg + fluconazole 200 mg, n = 12): 1560 ng·h/mL | AUC ([14]; AUC0‐inf, Mean (SD), lemborexant 10 mg + fluconazole 200 mg): 1540 ng·h/mL | AUC ([14]; AUC0‐t, Geometric LSM, lemborexant 10 mg + fluconazole 200 mg once daily, n = 14): 1330 ng·h/mL | AUC ([14]; AUC0‐t, Mean (SD), lemborexant 10 mg + fluconazole 200 mg): 1360 ng·h/mL | AUC0‐inf, Geometric Mean Ratio (90%CI) [14, 22]: 4.175 (3.828‐4.553) | AUC0‐t, Geometric Mean Ratio (90%CI) [14, 22]: 3.759 (3.486‐4.053) | Cmax, Geometric Mean Ratio (90%CI) [14, 22]: 1.622 (1.336‐1.969) | higher exposure with weak CYP3A inhibitors ([15]; average, with versus without weak CYP3A inhibitors): 30% | estimated lemborexant exposure ([15]; subjects coadministered weak CYP3A inhibitors, n = 15, studies 303 and 304): 420 ng·h/mL | estimated lemborexant exposure ([15]; subjects not coadministered weak CYP3A inhibitors, n = 257, studies 303 and 304): 330 ng·h/mL | degree of CYP3A inhibition (exposure ratio) ([15]; with versus without weak CYP3A inhibitors): 1.3 fold | inhibition of CYP2B6 (CYP2B6 [16]): do not inhibit | inhibition of CYP2C9 (CYP2C9): do not inhibit | inhibition of CYP2C19 (CYP2C19): do not inhibit | inhibition of CYP2C8 (CYP2C8): do not inhibit | inhibition of OAT1 (OAT1): do not inhibit | inhibition of CYP2A6 (CYP2A6): do not inhibit | decrease in lemborexant AUC0‐inf ([17]; coadministration with rifampin): > 90% | decrease in lemborexant Cmax ([17]; coadministration with rifampin): > 90% | half-life ([17]; human, plasma, 10 mg): 45.6 h | AUC ([17]; human, plasma, 10 mg, AUC0‐inf, Geometric LSM, lemborexant 10 mg alone, n = 15, rifampin cohort): 389 ng·h/mL | AUC ([17]; human, plasma, 10 mg, AUC0‐inf, Mean (SD), lemborexant 10 mg alone, rifampin cohort): 428 ng·h/mL | AUC ([17]; human, plasma, 10 mg, AUC0‐t, Mean (SD), lemborexant 10 mg alone, rifampin cohort): 409 ng·h/mL | Cmax ([17]; human, plasma, 10 mg, Geometric LSM, lemborexant 10 mg alone, n = 15, rifampin cohort): 55.5 ng/mL | Cmax ([17]; human, plasma, 10 mg, Mean (SD), lemborexant 10 mg alone, rifampin cohort): 58.9 ng/mL | AUC ([17]; human, plasma, AUC0‐inf, Geometric LSM, lemborexant 10 mg + rifampin 600 mg, n = 9): 13.4 ng·h/mL | AUC ([17]; human, plasma, AUC0‐inf, Mean (SD), lemborexant 10 mg + rifampin 600 mg): 15.8 ng·h/mL | AUC ([17]; human, plasma, AUC0‐t, Geometric LSM, lemborexant 10 mg + rifampin 600 mg once daily, n = 15): 12.3 ng·h/mL | AUC ([17]; human, plasma, AUC0‐t, Mean (SD), lemborexant 10 mg + rifampin 600 mg): 13.5 ng·h/mL | Cmax ([17]; human, plasma, Geometric LSM, lemborexant 10 mg + rifampin 600 mg, n = 15): 4.7 ng/mL | Cmax ([17]; human, plasma, Mean (SD), lemborexant 10 mg + rifampin 600 mg): 5.3 ng/mL | AUC0‐inf, Geometric Mean Ratio (90%CI) [17, 23]: 0.034 (0.026‐0.045) | AUC0‐t, Geometric Mean Ratio (90%CI) [17, 23]: 0.033 (0.027‐0.040) | Cmax, Geometric Mean Ratio (90%CI) [17, 23]: 0.085 (0.067‐0.107) | inhibition of CYP2E1 (CYP2E1): do not inhibit | substrate of OATP1B3 (OATP1B3 [18]): neither lemborexant nor M10 was a substrate
